Laboratory results: PubChem BioAssay AID1645866 (Buhrlage Lab, Dana-Farber Cancer Institute and Novartis …, 2021)
The source made the active and inactive calls.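 The calls were made as follows: active = in confirmatory dose-response testing, peak deubiquitinase inhibition of 30% or more; inactive = the rest.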

Molecular target: Ubiquitin carboxyl-terminal hydrolase 28 (Homo sapiens) (UniProt Q96RU2)
Assay: Ubiquitin-specific peptidase 28 DUB inhibitors, biochemical concentration-dependence assay, validation of primary screening hits (AID 1645866)
Settings: purified USP28, ubiquitin-rhodamine fluorescence, 30 min

Ubiquitin carboxyl-terminal hydrolase 28 (Homo sapiens), sequence (Q96RU2 whole entry, looked up): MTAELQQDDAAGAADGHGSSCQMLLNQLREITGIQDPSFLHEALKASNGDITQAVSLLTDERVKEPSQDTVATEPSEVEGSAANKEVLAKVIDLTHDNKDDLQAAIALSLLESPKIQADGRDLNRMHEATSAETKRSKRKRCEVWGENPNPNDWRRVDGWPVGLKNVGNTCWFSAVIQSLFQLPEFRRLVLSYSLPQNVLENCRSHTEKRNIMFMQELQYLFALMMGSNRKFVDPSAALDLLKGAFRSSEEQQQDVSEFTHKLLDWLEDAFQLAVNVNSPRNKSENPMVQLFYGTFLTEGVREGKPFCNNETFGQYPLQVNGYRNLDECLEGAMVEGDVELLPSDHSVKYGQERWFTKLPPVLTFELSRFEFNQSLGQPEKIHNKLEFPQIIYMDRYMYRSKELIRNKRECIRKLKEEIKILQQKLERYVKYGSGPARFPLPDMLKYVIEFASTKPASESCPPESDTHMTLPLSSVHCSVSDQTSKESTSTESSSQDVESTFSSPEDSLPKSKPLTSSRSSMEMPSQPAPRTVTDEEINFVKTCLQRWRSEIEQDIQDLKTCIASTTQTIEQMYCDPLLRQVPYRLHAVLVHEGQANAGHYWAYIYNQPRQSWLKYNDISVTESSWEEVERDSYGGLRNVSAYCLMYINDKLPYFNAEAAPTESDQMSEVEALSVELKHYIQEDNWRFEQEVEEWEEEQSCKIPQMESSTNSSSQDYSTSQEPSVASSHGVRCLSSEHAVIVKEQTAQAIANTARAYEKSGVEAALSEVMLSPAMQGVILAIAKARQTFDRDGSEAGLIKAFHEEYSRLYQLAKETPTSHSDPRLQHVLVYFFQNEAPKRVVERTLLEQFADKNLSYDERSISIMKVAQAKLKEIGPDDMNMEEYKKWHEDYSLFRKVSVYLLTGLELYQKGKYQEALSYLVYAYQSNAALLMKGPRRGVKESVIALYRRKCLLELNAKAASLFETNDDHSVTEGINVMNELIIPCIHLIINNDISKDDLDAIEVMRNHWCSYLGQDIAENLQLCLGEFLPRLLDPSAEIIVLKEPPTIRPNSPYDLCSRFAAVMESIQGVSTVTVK

Row | Compound | IC50
1 | O=C(Nc1ccc(Cl)cc1F)c1cc(-c2ccccn2)n[nH]1 | 1.7 µM
2 | COCCN(C1CCN(CCc2ccc(Cl)cc2)CC1)S(=O)(=O)c1cccc2cccnc12 | > 50 µM (inactive)
3 | CC1CC[C@]2(NC1)O[C@H]1C[C@H]3[C@@H]4CC[C@H]5C[C@@H](O[C@@H]6O[C@H](CO)[C@H](O[C@@H]7O[C@H](CO)[C@@H](O)[C@H](O[C@@H]8OC[C@@H](O)[C@H](O)[C@H]8O)[C@H]7O[C@@H]7O[C@H](CO)[C@@H](O)[C@H](O)[C@H]7O)[C@H](O)[C@H]6O)CC[C@]5(C)[C@H]4CC[C@]3(C)[C@H]1[C@@H]2C (some centres not stated) | 30.5 µM
4 | COc1ccccc1C(=O)N1CCC(S(=O)(=O)c2ccc(-c3ccco3)cc2)CC1 | 42.9 µM
5 | Cc1ccc(C(=O)Nc2ccc3nccnc3c2)cc1 | 9.87 µM
6 | Cc1cc(C)nc(SCCn2c(N3CCC(Cc4ccccc4)CC3)nc3c2c(=O)n(C)c(=O)n3C)n1 | > 50 µM (inactive)
7 | O=C(COC(=O)c1n[nH]c2ccccc12)Nc1ccc(N2CCCCC2)cc1 | 25.9 µM
8 | Cc1nc2ccc(NC(=O)COc3ccccc3[N+](=O)[O-])cc2s1 | 11.8 µM
9 | O=C(COc1ccc(Cl)cc1)Nc1noc(-c2ccccc2)n1 | 22.4 µM
10 | COc1cccc(NC(=O)CCc2c(C)nn(-c3cc(N4CCCCC4)ncn3)c2C)c1 | 7.17 µM
11 | O=C(CCCCn1c(=O)c2ccccc2n(Cc2ccccc2F)c1=O)NCCc1ccccc1 | 15.5 µM
12 | O=C(Cn1cncc(C(=O)NC2CCCC2)c1=O)Nc1cccc(F)c1 | 21.6 µM
13 | C=C(NC(=O)C(=C)NC(=O)c1csc(C2=N[C@@H]3c4csc(n4)[C@H]4NC(=O)c5csc(n5)[C@H]([C@](C)(O)[C@@H](C)O)NC(=O)[C@H]5CSC(=N5)/C(=C/C)NC(=O)C([C@@H](C)O)NC(=O)c5csc(n5)C3(CC2)NC(=O)[C@H](C)NC(=O)C(=C)NC(=O)[C@H](C)NC(=O)C([C@@H](C)CC)N[C@@H]2C=Cc3c(C(C)O)cc(nc3[C@H]2O)C(=O)OC4C)n1)C(N)=O (some centres not stated) | > 50 µM (inactive)
14 | CN(C)S(=O)(=O)c1ccc(N2CCCC2)c(C(=O)Nc2ccc(-c3cn4ccsc4n3)cc2)c1 | > 50 µM (inactive)
15 | Cc1ccc(CNC(=O)CCCn2c(=O)c3sccc3n(CC(=O)OCc3ccccc3)c2=O)cc1 | 2.15 µM
16 | O=C(NCCc1ccccc1F)c1cn2cc(Cl)ccc2n1 | 31.8 µM
17 | Cc1noc(C)c1CN1CC[C@H]2O[C@H](C(=O)NCc3ccco3)CC[C@H]21 | > 50 µM (inactive)
18 | CCN(CC)C(=O)CN1CCCC(c2ncncc2-c2cc(C)no2)C1 (configuration not stated) | > 50 µM (inactive)
19 | O=C(c1cscn1)N1CCC2(CC1)CC1(CO2)Nc2ccccc2-n2cccc21 (configuration not stated) | > 50 µM (inactive)
20 | O=C(CSc1nc2cc(C(F)(F)F)ccc2s1)NCC(=O)c1ccccc1 | 6.5 µM
21 | O=C(NCc1ccccc1)c1ccc2c(=O)n(-c3ccccc3)c(=O)[nH]c2c1 | 18.6 µM
22 | Cc1ccc(-c2ncc(C(=O)NCc3cccc(C)c3)c(-c3ccncc3)n2)cc1 | > 50 µM (inactive)
23 | O=C(CSc1nncc2ccccc12)Nc1ccc2c(c1)OCO2 | 37.5 µM
24 | O=C(CNc1ccc(F)c(Cl)c1)Nc1ccc2c(c1)OCCO2 | 15.6 µM

Row | Compound | IC50
25 | COc1cc(NC(=O)c2ccc3c(c2)OCO3)ccc1-c1cc2ccccc2oc1=O | 2.19 µM
26 | Cc1ccccc1NC(=O)c1ccn(COc2ccc(Cl)cc2)n1 | 13.3 µM
27 | Cc1ccccc1NC(=O)c1ccc(N2CCCCC2)nn1 | > 50 µM (inactive)
28 | Cc1c(-c2nn3c(-c4ccco4)nnc3s2)cccc1[N+](=O)[O-] | 2.49 µM
29 | Cc1ncc(CO)c2c1Oc1nc(-c3cccc(Cl)c3)nc(SCC(=O)N3CCCCC3)c1C2 | > 50 µM (inactive)
30 | CC(=O)Nc1cc(-c2cccc(O)c2)cn2c(-c3cnn(C)c3)cnc12 | 5.99 µM
31 | O=C(Nc1ccc2c(c1)OCCO2)C1CCC(Cn2cnc3ccccc3c2=O)CC1 (configuration not stated) | 0.594 µM
32 | COc1cccc(CN2CCc3nc4nc(C)ccc4cc3C2)c1 | > 50 µM (inactive)
33 | Cc1ccc(CNC(=O)c2cnc3ccccc3n2)cc1 | > 50 µM (inactive)
34 | CCn1cnc2c(-c3ccccc3)cn(CC(=O)NCc3ccc4c(c3)OCO4)c2c1=O | 10.4 µM
35 | Cc1cc(/C=C2/C(=N)N3C(c4ccccc4)=CSC3=NC2=O)c(C)n1-c1ccc(F)cc1 | > 50 µM (inactive)
36 | COc1cc(Cl)ccc1Oc1ncnc2sc(C)c(C)c12 | > 50 µM (inactive)
37 | C/C=C\C1=CC(=O)[C@]23C[C@H]2[C@]2(C)CO[C@@]1(O)[C@@]3(O)O2 | > 50 µM (inactive)
38 | Cc1ccc(C(=O)NCc2ccc(C(=O)Nc3ccc(C)c(C)c3)o2)cc1 | 28.2 µM
39 | COC1/C=C/OC2(C)Oc3c(C)c(O)c4c(c3C2=O)C(=O)C=C(NC(=O)/C(C)=C\C=C\C(C)C(O)C(C)C(O)C(C)C(OC(C)=O)C1C)C4=O (configuration not stated) | 38 µM
40 | N#Cc1ccccc1Cn1c(=O)n(CCCCC(=O)NCc2ccco2)c(=O)c2ccccc21 | 36.6 µM
41 | O=C(Nc1ccc2c(c1)OCCO2)C1CCN(C(=O)c2ccccc2)CC1 | 9.44 µM
42 | CN(c1ccccc1)c1nc(=O)n(CC(=O)Nc2ccc3c(c2)OCCO3)c2ccccc12 | 28.2 µM
43 | COc1ccc(CCNC(=O)CCCCn2c(=O)c3ccccc3n(Cc3cccc(Cl)c3)c2=O)cc1OC | 21.1 µM
44 | CC(C)N1CC2CN(C(=O)c3ccccc3)CCN2Cc2ccccc21 (configuration not stated) | > 50 µM (inactive)
45 | O=C(Cn1cnc2c(oc3ccccc32)c1=O)NCc1ccccc1Cl | 22.2 µM
46 | Cc1ccc(CSC2=NS(=O)(=O)c3ccccc3N2)cc1 | 16.2 µM
47 | COc1cccc(NC(=O)c2nnn(-c3ccccc3)n2)c1 | 7.33 µM
